Measured values: patent publication US12110286B2, “Benzimidazolone derived inhibitors of BCL6” (Cancer Research Technology Limited, priority 2017, dated 2024)

Target: Trx-6×His-BCL6 (human BCL6 BTB domain covering amino-acid sequence 5-129) (Homo sapiens (Human), UniProt P41182)
Assay: HTRF in vitro assay (BCL6 / BCOR-AF633 peptide)
Assay type: binding
Conditions: for activity in the HTRF assay: result in words
Experimental: The % inhibition at each concentration was calculated by normalising FRET ratio to the appropriate high (DMSO with all reagents) and low (DMSO without BCL6) controls.

[1] = further generated data, 1 nM Trx-6×His-BCL6, 300 nM BCOR-AF633 peptide, 0.5 nM anti-6×His-Terbium cryptate
[2] = initially generated data, 10 nM Trx-6×His-BCL6, 300 nM BCOR-AF633 peptide, 1 nM anti-6×His-Terbium cryptate

| SMILES | HTRF pIC50 [1] | activity in the HTRF assay | HTRF pIC50 [2] |
| --- | --- | --- | --- |
| Cn1c(=O)n(CCC(C)(C)O)c2cc(Nc3nc(N4CCC(F)(F)CC4)ncc3Cl)ncc21 [6-((5-chloro-2-(4,4-difluoropiperidin-1-yl)pyrimidin-4-yl)amino)-1-(3-hydroxy-3-methylbutyl)-3-methyl-1,3-dihydro-2H-imidazo[4,5-c]pyridin-2-one] |  | did not exhibit the desired activity |  |
| Cn1c(=O)n(CC2CCOCC2)c2cc(Nc3ccnc(Cl)c3C#N)ccc21 [2-chloro-4-((1-methyl-2-oxo-3-((tetrahydro-2H-pyran-4-yl)methyl)-2,3-dihydro-1H-benzo[d]imidazol-5-yl)amino)nicotinonitrile] |  | did not exhibit the desired activity |  |
| Cn1c(=O)n(CCC(C)(O)CCO)c2cc(Nc3nc(Cl)ncc3Cl)ccc21 (centres unmarked) [5-((2,5-dichloropyrimidin-4-yl)amino)-3-(3,5-dihydroxy-3-methylpentyl)-1-methyl-1,3-dihydro-2H-benzo[d]imidazol-2-one] |  | did not exhibit the desired activity |  |
| Cc1cc(C)n(-c2nc(C)c(Cl)c(Nc3ccc4c(c3)n(CCC(C)(C)O)c(=O)n4C)n2)n1 [Example 15p] | 5.82 |  |  |
| CSc1ncc(Cl)c(Nc2ccc3c(c2)n(CCC(C)(C)O)c(=O)n3C)n1 [Example 22a, 5-((5-chloro-2-(methylthio)pyrimidin-4-yl)amino)-3-(3-hydroxy-3-methylbutyl)-1-methyl-1,3-dihydro-2H-benzo[d]imidazol-2-one] | 6.19 |  |  |
| CNC(=O)c1cc(Nc2ccc3c(c2)n(CCC(C)C(=O)OC)c(=O)n3C)c(C#N)c(Cl)n1 (centres unmarked) [Example 7a, Methyl 4-[6-[[2-chloro-3-cyano-6-(methylcarbamoyl)-4-pyridyl]amino]-3-methyl-2-oxo-benzimidazol-1-yl]-2-methyl-butanoate] | 6.09 |  | 5.97 |
| Cn1c(=O)n(CCC(C)(C)O)c2cc(Nc3nc(N4CC(C(F)(F)F)OC(C)(C)C4)ncc3Cl)ccc21 (centres unmarked) [Example 20k] | 6.11 |  |  |
| Cn1c(=O)n(CCC2(O)CCC2)c2cc(Nc3ccnc(Cl)c3C#N)ccc21 [Example 18a, 2-chloro-4-((3-(2-(1-hydroxycyclobutyl)ethyl)-1-methyl-2-oxo-2,3-dihydro-1H-benzo[d]imidazol-5-yl)amino)nicotinonitrile] | 5.90 |  |  |
| Cn1c(=O)n(CCS(C)(=O)=O)c2cc(Nc3ccnc(Cl)c3C#N)ccc21 [Example 18b, 2-chloro-4-((1-methyl-3-(2-(methylsulfonyl)ethyl)-2-oxo-2,3-dihydro-1H-benzo[d]imidazol-5-yl)amino)nicotinonitrile] | 5.31 |  |  |
| Cn1c(=O)n(CCC(C)(C)O)c2cc(Nc3ccncc3Cl)ncc21 [6-((3-chloropyridin-4-yl)amino)-1-(3-hydroxy-3-methylbutyl)-3-methyl-1,3-dihydro-2H-imidazo[4,5-c]pyridin-2-one] |  | did not exhibit the desired activity |  |
| Cn1c(=O)n(CC2(C#N)CCOCC2)c2cc(Nc3ccnc(Cl)c3C#N)ccc21 [2-chloro-4-((3-((4-cyanotetrahydro-2H-pyran-4-yl)methyl)-1-methyl-2-oxo-2,3-dihydro-1H-benzo[d]imidazol-5-yl)amino)nicotinonitrile] |  | did not exhibit the desired activity |  |
| COC(=O)C(C)CCn1c(=O)n(C)c2ccc(Nc3cc(C(=O)O)nc(Cl)c3C#N)cc21 (centres unmarked) [Example 3a, 6-Chloro-5-cyano-4-[[3-(4-methoxy-3-methyl-4-oxo-butyl)-1-methyl-2-oxo-benzimidazol-5-yl]amino]pyridine-2-carboxylic acid] | 5.93 |  | 6.21 |
| Cn1c(=O)n(CC2CCOC2(C)C)c2cc(Nc3ccnc(Cl)c3C#N)ccc21 (centres unmarked) [2-chloro-4-((3-((2,2-dimethyltetrahydrofuran-3-yl)methyl)-1-methyl-2-oxo-2,3-dihydro-1H-benzo[d]imidazol-5-yl)amino)nicotinonitrile] |  | did not exhibit the desired activity |  |
| Cn1c(=O)n(CCC(C)(C)O)c2cc(Nc3nc(N4CC5CC(C4)C5(F)F)ncc3Cl)ccc21 [Example 35w, 5-((5-chloro-2-(6,6-difluoro-3-azabicyclo[3.1.1]heptan-3-yl)pyrimidin-4-yl)amino)-3-(3-hydroxy-3-methylbutyl)-1-methyl-1,3-dihydro-2H-benzo[d]imidazol-2-one] | 5.74 |  |  |
| COC(=O)C(CCn1c(=O)n(C)c2ccc(Nc3ccnc(Cl)c3C#N)cc21)OC (centres unmarked) [Example 10b] | 5.57 |  | 5.71 |
| Cc1cc(C)n(-c2ncc(Br)c(Nc3ccc4c(c3)n(CCC(C)(C)O)c(=O)n4C)n2)n1 [Example 15q] | 6.09 |  |  |
| Cn1c(=O)n(CCC(C)(C)O)c2cc(Nc3c(Cl)cncc3Cl)ccc21 [5-((3,5-dichloropyridin-4-yl)amino)-3-(3-hydroxy-3-methylbutyl)-1-methyl-1,3-dihydro-2H-benzo[d]imidazol-2-one] |  | did not exhibit the desired activity |  |
| CN(C)CCNC(=O)c1cc(Nc2ccc3c(c2)n(C)c(=O)n3C)c(C#N)c(Cl)n1 [Example 7d, 6-Chloro-5-cyano-N-[2-(dimethylamino)ethyl]-4-[(1,3-dimethyl-2-oxo-benzimidazol-5-yl)amino]pyridine-2-carboxamide:formic acid (1:1)] |  |  | 5.50 |
| Cn1c(=O)n(CCC(C)(C)O)c2cc(Nc3nc(-n4cccn4)ncc3Cl)ccc21 [Example 15m] | 6.08 |  |  |

Results, then the compound that gave them:

| HTRF pIC50 [1] | activity in the HTRF assay | HTRF pIC50 [2] | SMILES |
| --- | --- | --- | --- |
| 6.53 |  |  | C[C@@H]1CN(c2ncc(Cl)c(Nc3ccc4c(c3)n(CCC(C)(C)O)c(=O)n4CCN(C)C)n2)C[C@H](C)C1(F)F [Example 37a, 5-((5-chloro-2-((3S,5R)-4,4-difluoro-3,5-dimethylpiperidin-1-yl)pyrimidin-4-yl)amino)-1-(2-(dimethylamino)ethyl)-3-(3-hydroxy-3-methylbutyl)-1,3-dihydro-2H-benzo[d]imidazol-2-one] |
| 6.33 |  |  | Cn1ccnc1-c1ncc(Cl)c(Nc2ccc3c(c2)n(CCC(C)(C)O)c(=O)n3C)n1 [Example 24a, 5-((5-chloro-2-(1-methyl-1H-imidazol-2-yl)pyrimidin-4-yl)amino)-3-(3-hydroxy-3-methylbutyl)-1-methyl-1,3-dihydro-2H-benzo[d]imidazol-2-one:formic acid (1:1)] |
| 5.88 |  |  | Cn1c(=O)n(CCC(C)(C)O)c2cc(Nc3ccnc(Cl)c3Cl)ccc21 [Example 29b, 5-((2,3-dichloropyridin-4-yl)amino)-3-(3-hydroxy-3-methylbutyl)-1-methyl-1,3-dihydro-2H-benzo[d]imidazol-2-one] |
| 6.22 |  |  | C[C@@H]1C[C@H](C)CN(C(=O)c2cc(Nc3ccc4c(c3)n(CCC(C)(C)O)c(=O)n4C)c(Cl)cn2)C1 [Example 36e, 5-((5-chloro-2-((3R,5S)-3,5-dimethylpiperidine-1-carbonyl)pyridin-4-yl)amino)-3-(3-hydroxy-3-methylbutyl)-1-methyl-1,3-dihydro-2H-benzo[d]imidazol-2-one] |
| 6.05 |  |  | Cn1c(=O)n(CCC(C)(C)O)c2cc(Nc3nc(N4CCC5(CC4)CC(F)(F)C5)ncc3Cl)ccc21 [Example 35f, 5-((5-chloro-2-(2,2-difluoro-7-azaspiro[3.5]nonan-7-yl)pyrimidin-4-yl)amino)-3-(3-hydroxy-3-methylbutyl)-1-methyl-1,3-dihydro-2H-benzo[d]imidazol-2-one] |
| 6.81 |  |  | Cn1c(=O)n(CCC(C)(C)O)c2cc(Nc3nc(N4CCOC(CO)C4)ncc3Cl)ccc21 (centres unmarked) [Example 42j, 5-((5-chloro-2-(2-(hydroxymethyl)morpholino)pyrimidin-4-yl)amino)-3-(3-hydroxy-3-methylbutyl)-1-methyl-1,3-dihydro-2H-benzo[d]imidazol-2-one] |
| 6.22 |  |  | CCC1(Cn2c(=O)n(C)c3ccc(Nc4nc(-n5ccc(C(F)(F)F)n5)ncc4Cl)cc32)CNC(=O)O1 (centres unmarked) [Example 20o] |
| 6.14 |  |  | COCC(C)(O)CCn1c(=O)n(C)c2ccc(Nc3ccnc(Cl)c3C#N)cc21 (centres unmarked) [Example 27b, 2-chloro-4-((3-(3-hydroxy-4-methoxy-3-methylbutyl)-1-methyl-2-oxo-2,3-dihydro-1H-benzo[d]imidazol-5-yl)amino)nicotinonitrile] |
| 5.55 |  |  | CC(Cn1c(=O)n(C)c2ccc(Nc3ccnc(Cl)c3C#N)cc21)C(C)(C)O (centres unmarked) [Example 27e, 2-chloro-4-((3-(3-hydroxy-2,3-dimethylbutyl)-1-methyl-2-oxo-2,3-dihydro-1H-benzo[d]imidazol-5-yl)amino)nicotinonitrile] |
| 5.70 |  |  | C[C@@H]1CCN(c2ncc(Cl)c(Nc3ccc4c(c3)n(CCC(C)(C)O)c(=O)n4C)n2)C[C@H](C)C1 [Example 35y, 5-((5-chloro-2-((3R,5S)-3,5-dimethylazepan-1-yl)pyrimidin-4-yl)amino)-3-(3-hydroxy-3-methylbutyl)-1-methyl-1,3-dihydro-2H-benzo[d]imidazol-2-one] |
| 5.34 |  |  | CCN1CCC[C@H]1Cn1c(=O)n(C)c2ccc(Nc3ccnc(Cl)c3C#N)cc21 [Example 25c, (S)-2-chloro-4-((3-((1-ethylpyrrolidin-2-yl)methyl)-1-methyl-2-oxo-2,3-dihydro-1H-benzo[d]imidazol-5-yl)amino)nicotinonitrile] |
| 5.99 |  |  | Cn1c(=O)n(CCC(C)(C)O)c2cc(Nc3nc(N4CCCC4=O)ncc3Cl)ccc21 [Example 30b, 5-((5-chloro-2-(2-oxopyrrolidin-1-yl)pyrimidin-4-yl)amino)-3-(3-hydroxy-3-methylbutyl)-1-methyl-1,3-dihydro-2H-benzo[d]imidazol-2-one] |
| 6.46 |  |  | Cn1c(=O)n(CCC(C)(C)O)c2cc(Nc3nc(N4CCCC(C#N)C4)ncc3Cl)ccc21 (centres unmarked) [Example 42b, 1-(5-chloro-4-((3-(3-hydroxy-3-methylbutyl)-1-methyl-2-oxo-2,3-dihydro-1H-benzo[d]imidazol-5-yl)amino)pyrimidin-2-yl)piperidine-3-carbonitrile] |
